Source: patent US20240228555A9, “ANTIMICROBIAL PEPTIDOMIMETICS” (Basilea Pharmaceutica International AG, Allschwil, priority 2020, published 2024)
Where a SMILES comes first, the peptide text is derived from it.

Assays:
[1] = test system: human red blood cells (hRBC); type: cell-based; settings: red cells of human, 1 h, 0.2 g/L
Experimental: (§1) Lyophilized peptides were weighed on a Microbalance (Mettler MT5) and dissolved in sterile water to a final concentration of 1 mg/mL. Stock solutions were kept at +4° C., light protected.
The peptides were tested for their hemolytic activity against human red blood cells (hRBC). Fresh hRBC were washed three times with phosphate buffered saline (PBS) and centrifuged for 5 min at 3000×g. Compounds (200 μg/mL) were incubated with 20% hRBC (v/v) for 1 h at 37° C. and shaking at 300 rpm. A value of 0% and 100% cell lyses, respectively, was determined by incubation of hRBC in the presence of PBS and 2.5% Triton X-100 in H2O, respectively. The samples were centrifuged, the supernatants were 8-fold diluted in PBS buffer and the optical densities (OD) were measured at 540 nm. The 100% lyses value (OD540H2O) gave an OD540 of approximately 0.5-1.0.
Percent hemolysis was calculated as follows: (OD540peptide/OD540H2O)×100%.

[2] = test system: Escherichia coli ATCC 25922; settings: ATCC 25922
Experimental: as §1
(§2) Colonies of the microorganisms were diluted in saline (0.85%, NaCl) and adjusted using a McFarland reader (bioMérieux SA, Marcy-l'Etoile, France) to 0.5 McFarland standard. Subsequently, the bacterial suspension was diluted in Mueller-Hinton II (MHII, cation adjusted) broth to give approximately 5×10^5 colony forming units (CFU/mL).
(§3) 10^6 colony forming units (CFU)/mL. Aliquots (90 μl) of inoculate were added to 10 μl of water+P-80 (Polysorbate 80, 0.002% final concentration) containing the peptide in serial two-fold dilutions at 10 fold final concentration. The following microorganisms were used to determine antibiotic selectivity of the peptides: Escherichia coli ATCC 25922, Escherichia coli MCR-1 Af 45 and Klebsiella pneumoniae SSI3010.

[3] = test system: Escherichia coli MCR-1 Af 45; settings: Mueller-Hinton broth II, no visible growth after 18-20 hours at 35° C.
Experimental: as §1, §2, §3

[4] = test system: Klebsiella pneumoniae SSI3010; settings: SSI3010
Experimental: as §1, §2, §3

## CC[C@H](C)[C@H](NC(=O)[C@@H](NC(=O)[C@@H]1C[C@@H](O)CN1C(=O)[C@@H](N)C(C)C)[C@@H](C)CC)C(=O)N[C@@H](Cc1ccc(O)cc1)C(=O)N[C@@H]1C(=O)N[C@@H](CC(N)=O)C(=O)N[C@@H](CCCNC(=N)N)C(=O)N[C@@H](CCN)C(=O)N[C@@H](CO)C(=O)N[C@H](CCN)C(=O)N[C@@H]([C@@H](C)CC)C(=O)N[C@H](C(=O)N[C@@H](CCN)C(=O)N[C@@H](CCN)C(=O)N[C@@H](Cc2ccc(O)cc2)C(=O)O)CSSC1(C)C [Example 84, Val-Hyp-Ile-Ile-Tyr-Pen-Asn-Arg-Dab-Ser-^DDab-Ile-Cys-Dab-Dab-Tyr] (HELM PEPTIDE1{V.[Hyp].I.I.Y.[Pen].N.R.[Dab].S.[NCC[C@@H](N[*:1])C(=O)[*:2]].I.C.[Dab].[Dab].Y}$PEPTIDE1,PEPTIDE1,6:R3-13:R3$$$V2.0)
[1]
  Hemolysis at 0.2 g/L: <1%
[2]
  Escherichia coli ATCC 25922 MIC: 0.25 µg/mL
[3]
  Escherichia coli MCR-1 Af 45 MIC: 0.25 µg/mL
[4]
  Klebsiella pneumoniae SSI3010 MIC: 0.5 µg/mL

## CC[C@H](C)[C@H](NC(=O)[C@@H](NC(=O)[C@@H]1C[C@@H](O)CN1C(=O)[C@@H](N)C(C)C)[C@@H](C)CC)C(=O)N[C@@H](Cc1ccc(O)cc1)C(=O)N[C@@H]1C(=O)N[C@@H](CC(N)=O)C(=O)N[C@@H](CCCNC(=N)N)C(=O)N[C@@H](CCN)C(=O)N[C@@H]([C@@H](C)O)C(=O)N[C@H](CCN)C(=O)N[C@@H](CCCCN)C(=O)N[C@H](C(=O)N[C@@H](CCN)C(=O)N[C@@H](CCCN)C(=O)N[C@@H](Cc2ccc(O)cc2)C(=O)O)CSSC1(C)C [Example 85, Val-Hyp-Ile-Ile-Tyr-Pen-Asn-Arg-Dab-Thr-^DDab-Lys-Cys-Dab-Orn-Tyr] (HELM PEPTIDE1{V.[Hyp].I.I.Y.[Pen].N.R.[Dab].T.[NCC[C@@H](N[*:1])C(=O)[*:2]].K.C.[Dab].[Orn].Y}$PEPTIDE1,PEPTIDE1,6:R3-13:R3$$$V2.0)
[1]
  Hemolysis at 0.2 g/L: <1%
[2]
  Escherichia coli ATCC 25922 MIC: 0.125 µg/mL
[3]
  Escherichia coli MCR-1 Af 45 MIC: 0.0625 µg/mL
[4]
  Klebsiella pneumoniae SSI3010 MIC: 0.25 µg/mL

## CC[C@H](C)[C@H](NC(=O)[C@@H](NC(=O)[C@@H]1C[C@@H](O)CN1C(=O)[C@@H](N)C(C)C)[C@@H](C)CC)C(=O)N[C@@H](Cc1ccc(O)cc1)C(=O)N[C@@H]1C(=O)N[C@@H](CC(N)=O)C(=O)N[C@@H](CCCNC(=N)N)C(=O)N[C@@H](CCN)C(=O)N[C@@H](CO)C(=O)N[C@H](CCN)C(=O)N[C@@H](CCCCN)C(=O)N[C@H](C(=O)N[C@@H](CCN)C(=O)N[C@@H](CCCN)C(=O)N[C@@H](Cc2ccc(O)cc2)C(=O)O)CSSC1(C)C [Example 86, Val-Hyp-Ile-Ile-Tyr-Pen-Asn-Arg-Dab-Ser-^DDab-Lys-Cys-Dab-Orn-Tyr] (HELM PEPTIDE1{V.[Hyp].I.I.Y.[Pen].N.R.[Dab].S.[NCC[C@@H](N[*:1])C(=O)[*:2]].K.C.[Dab].[Orn].Y}$PEPTIDE1,PEPTIDE1,6:R3-13:R3$$$V2.0)
[1]
  Hemolysis at 0.2 g/L: <1%
[2]
  Escherichia coli ATCC 25922 MIC: 0.125 µg/mL
[3]
  Escherichia coli MCR-1 Af 45 MIC: 0.0625 µg/mL
[4]
  Klebsiella pneumoniae SSI3010 MIC: 0.25 µg/mL

## CC[C@H](C)[C@H](NC(=O)[C@@H](NC(=O)[C@@H]1C[C@@H](O)CN1C(=O)[C@@H](N)C(C)C)[C@@H](C)CC)C(=O)N[C@@H](Cc1ccc(O)cc1)C(=O)N[C@@H]1C(=O)N[C@@H](CC(N)=O)C(=O)N[C@@H](CCCNC(=N)N)C(=O)N[C@@H](CCN)C(=O)N[C@@H]([C@@H](C)O)C(=O)N[C@H](CCN)C(=O)N[C@@H]([C@@H](C)CC)C(=O)N[C@H](C(=O)N[C@@H](CCN)C(=O)N[C@@H](CCCNC(=N)N)C(=O)N[C@@H](Cc2ccc(O)cc2)C(=O)O)CSSC1(C)C [Example 87, Val-Hyp-Ile-Ile-Tyr-Pen-Asn-Arg-Dab-Thr-^DDab-Ile-Cys-Dab-Arg-Tyr] (HELM PEPTIDE1{V.[Hyp].I.I.Y.[Pen].N.R.[Dab].T.[NCC[C@@H](N[*:1])C(=O)[*:2]].I.C.[Dab].R.Y}$PEPTIDE1,PEPTIDE1,6:R3-13:R3$$$V2.0)
[1]
  Hemolysis at 0.2 g/L: <1%
[2]
  Escherichia coli ATCC 25922 MIC: 0.125 µg/mL
[3]
  Escherichia coli MCR-1 Af 45 MIC: 0.125 µg/mL
[4]
  Klebsiella pneumoniae SSI3010 MIC: 0.25 µg/mL

## CC[C@H](C)[C@@H]1NC(=O)[C@@H](NC(=O)[C@H](Cc2ccc(O)cc2)NC(=O)[C@@H](NC(=O)[C@@H](NC(=O)[C@@H]2C[C@@H](O)CN2C(=O)[C@@H](N)C(C)C)[C@@H](C)CC)[C@@H](C)O)C(C)(C)SSC[C@@H](C(=O)N[C@@H](CCN)C(=O)N[C@@H](CCCN)C(=O)N[C@@H](Cc2ccc(O)cc2)C(=O)O)NC(=O)[C@H](CCCCN)NC(=O)[C@@H](CCN)NC(=O)[C@H]([C@@H](C)O)NC(=O)[C@H](CCN)NC(=O)[C@H](CCCNC(=N)N)NC1=O [Example 88, Val-Hyp-Ile-Thr-Tyr-Pen-Ile-Arg-Dab-Thr-^DDab-Lys-Cys-Dab-Orn-Tyr] (HELM PEPTIDE1{V.[Hyp].I.T.Y.[Pen].I.R.[Dab].T.[NCC[C@@H](N[*:1])C(=O)[*:2]].K.C.[Dab].[Orn].Y}$PEPTIDE1,PEPTIDE1,6:R3-13:R3$$$V2.0)
[1]
  Hemolysis at 0.2 g/L: <1%
[2]
  Escherichia coli ATCC 25922 MIC: 0.125 µg/mL
[3]
  Escherichia coli MCR-1 Af 45 MIC: 0.0625 µg/mL
[4]
  Klebsiella pneumoniae SSI3010 MIC: 0.25 µg/mL

## CC[C@H](C)[C@H](NC(=O)[C@@H]1C[C@@H](O)CN1C(=O)[C@@H](N)C(C)C)C(=O)N[C@@H](CCN)C(=O)N[C@@H](Cc1ccc(O)cc1)C(=O)N[C@@H]1C(=O)N[C@@H](CC(N)=O)C(=O)N[C@@H](CCCNC(=N)N)C(=O)N[C@@H](CCN)C(=O)N[C@@H]([C@@H](C)O)C(=O)N[C@H](CCN)C(=O)N[C@@H](CCCCN)C(=O)N[C@H](C(=O)N[C@@H](CCN)C(=O)N[C@@H](CCCN)C(=O)N[C@@H](Cc2ccc(O)cc2)C(=O)O)CSSC1(C)C [Example 89, Val-Hyp-Ile-Dab-Tyr-Pen-Asn-Arg-Dab-Thr-^DDab-Lys-Cys-Dab-Orn-Tyr] (HELM PEPTIDE1{V.[Hyp].I.[Dab].Y.[Pen].N.R.[Dab].T.[NCC[C@@H](N[*:1])C(=O)[*:2]].K.C.[Dab].[Orn].Y}$PEPTIDE1,PEPTIDE1,6:R3-13:R3$$$V2.0)
[1]
  Hemolysis at 0.2 g/L: <1%
[2]
  Escherichia coli ATCC 25922 MIC: 0.0625 µg/mL
[3]
  Escherichia coli MCR-1 Af 45 MIC: 0.0625 µg/mL
[4]
  Klebsiella pneumoniae SSI3010 MIC: 0.25 µg/mL

## CC[C@H](C)[C@H](NC(=O)[C@@H](NC(=O)[C@@H]1C[C@@H](N)CN1C(=O)[C@@H](N)C(C)C)[C@@H](C)CC)C(=O)N[C@@H](Cc1ccc(O)cc1)C(=O)N[C@@H]1C(=O)N[C@@H](CC(N)=O)C(=O)N[C@@H](CCCNC(=N)N)C(=O)N[C@@H](CCN)C(=O)N[C@@H]([C@@H](C)O)C(=O)N[C@H](CCN)C(=O)N[C@@H]([C@@H](C)CC)C(=O)N[C@H](C(=O)N[C@@H](CCN)C(=O)N[C@@H](CCCNC(=N)N)C(=O)N[C@@H](Cc2ccc(O)cc2)C(=O)O)CSSC1(C)C [Example 90, Val-Pro((4R)NH2)-Ile-Ile-Tyr-Pen-Asn-Arg-Dab-Thr-^DDab-Ile-Cys-Dab-Arg-Tyr] (HELM PEPTIDE1{V.[N[C@@H]1C[C@@H](C(=O)[*:2])N([*:1])C1].I.I.Y.[Pen].N.R.[Dab].T.[NCC[C@@H](N[*:1])C(=O)[*:2]].I.C.[Dab].R.Y}$PEPTIDE1,PEPTIDE1,6:R3-13:R3$$$V2.0)
[1]
  Hemolysis at 0.2 g/L: <1%
[2]
  Escherichia coli ATCC 25922 MIC: 0.125 µg/mL
[3]
  Escherichia coli MCR-1 Af 45 MIC: 0.0625 µg/mL
[4]
  Klebsiella pneumoniae SSI3010 MIC: 0.25 µg/mL
